Data reported in PubChem BioAssay (NCI).
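Compound exposure: 48 hours, 5 concentrations, 96-well plates. GI50 marks 50% less growth. Definition used: TGI = concentration required for complete inhibition of growth.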

Assays:
Assay in all cases: NCI-60 cell line screen, 48 h
[1] = system: 786-0 renal
[2] = system: A498 renal
[3] = system: A549 NSCLC
[4] = system: ACHN renal
[5] = system: BT-549 breast
[6] = system: CAKI-1 renal
[7] = system: CCRF-CEM leukemia
[8] = system: COLO 205 colon
[9] = system: DU-145 prostate
[10] = system: EKVX NSCLC
[11] = system: HCC-2998 colon
[12] = system: HCT-116 colon
[13] = system: HCT-15 colon
[14] = system: HL-60(TB) leukemia
[15] = system: HOP-62 NSCLC
[16] = system: HOP-92 NSCLC
[17] = system: HS 578T breast
[18] = system: HT29 colon
[19] = system: IGROV1 ovarian
[20] = system: K-562 leukemia
[21] = system: KM12 colon
[22] = system: LOX IMVI melanoma
[23] = system: M14 melanoma
[24] = system: MALME-3M melanoma
[25] = system: MCF7 breast
[26] = system: MDA-MB-231 breast
[27] = system: MDA-MB-435
[28] = system: MDA-MB-468 breast
[29] = system: MOLT-4 leukemia
[30] = system: NCI-H226 lung
[31] = system: NCI-H23 lung
[32] = system: NCI-H460 lung
[33] = system: NCI-H522 lung
[34] = system: NCI/ADR-RES ovarian
[35] = system: OVCAR-3 ovarian
[36] = system: OVCAR-4 ovarian
[37] = system: OVCAR-5 ovarian
[38] = system: OVCAR-8 ovarian
[39] = system: PC-3 prostate
[40] = system: RPMI-8226 leukemia
[41] = system: RXF 393 renal
[42] = system: SF-268 CNS
[43] = system: SF-295 CNS
[44] = system: SF-539 CNS
[45] = system: SK-MEL-2 melanoma
[46] = system: SK-MEL-28 melanoma
[47] = system: SK-MEL-5 melanoma
[48] = system: SK-OV-3 ovarian
[49] = system: SN12C renal
[50] = system: SNB-19 CNS
[51] = system: SNB-75 CNS
[52] = system: SR leukemia
[53] = system: SW-620 colon
[54] = system: T-47D breast
[55] = system: TK-10 renal
[56] = system: U251 CNS
[57] = system: UACC-257 melanoma
[58] = system: UACC-62 melanoma
[59] = system: UO-31 renal

O=C(NNc1nc2cc(C(F)(F)F)ccc2n2cccc12)c1cnccn1 gave a GI50 [1] of 0.365 µM, a TGI [1] of 1.69 µM and a GI50 [2] of 1.62 µM. The TGI [2] was 3.34 µM, the GI50 [3] was 0.424 µM and the TGI [3] was 8.91 µM. For the same molecule, the GI50 [4] was 0.217 µM, the TGI [4] was 1.45 µM and the GI50 [5] was 1.06 µM. For the same molecule, the TGI [5] was 3.41 µM, the GI50 [6] was 0.299 µM and the TGI [6] was 1.66 µM. The GI50 [7] was 0.141 µM, the TGI [7] was 1.95 µM and the GI50 [8] was 0.364 µM. For the same molecule, the TGI [8] was 1.48 µM, the GI50 [9] was 0.526 µM and the TGI [9] was 2.44 µM. The GI50 [10] was 0.176 µM, the TGI [10] was 1.23 µM and the GI50 [11] was 0.463 µM. The TGI [11] was 2.03 µM, the GI50 [12] was 0.182 µM and the TGI [12] was 1.32 µM. The GI50 [13] was 0.0891 µM, the TGI [13] was 1.55 µM and the GI50 [14] was 0.166 µM. For the same molecule, the TGI [14] was 1.69 µM, the GI50 [15] was 0.214 µM and the TGI [15] was 1.92 µM. For the same molecule, the GI50 [16] was 0.33 µM, the TGI [16] was 2.2 µM and the GI50 [17] was 1.5 µM. It also gave a TGI [17] of 10.7 µM, a GI50 [18] of 0.553 µM and a TGI [18] of 2.31 µM. It also gave a GI50 [19] of 0.146 µM, a TGI [19] of 1.6 µM and a GI50 [20] of 0.356 µM. It also gave a GI50 [21] of 0.341 µM, a TGI [21] of 2.06 µM and a GI50 [22] of 0.128 µM. For the same molecule, the TGI [22] was 1.3 µM, the GI50 [23] was 0.25 µM and the TGI [23] was 1.37 µM. For the same molecule, the GI50 [24] was 1.14 µM, the TGI [24] was 2.55 µM and the GI50 [25] was 0.293 µM. For the same molecule, the TGI [25] was 1.5 µM, the GI50 [26] was 0.438 µM and the TGI [26] was 1.94 µM. It also gave a GI50 [27] of 0.807 µM, a TGI [27] of 2.71 µM and a GI50 [28] of 0.19 µM. For the same molecule, the TGI [28] was 0.661 µM, the GI50 [29] was 0.235 µM and the TGI [29] was 5.06 µM. For the same molecule, the GI50 [30] was 0.772 µM, the TGI [30] was 3.9 µM and the GI50 [31] was 0.517 µM. The TGI [31] was 2.03 µM, the GI50 [32] was 0.116 µM and the TGI [32] was 5.58 µM. The GI50 [33] was 0.248 µM, the TGI [33] was 0.944 µM and the GI50 [34] was 0.255 µM. For the same molecule, the TGI [34] was 1.48 µM, the GI50 [35] was 0.287 µM and the TGI [35] was 1.58 µM. The GI50 [36] was 0.266 µM, the TGI [36] was 2.27 µM and the GI50 [37] was 0.776 µM. For the same molecule, the TGI [37] was 2.49 µM, the GI50 [38] was 0.365 µM and the TGI [38] was 2.38 µM. For the same molecule, the GI50 [39] was 0.325 µM, the TGI [39] was 2.19 µM and the GI50 [40] was 0.29 µM. The TGI [40] was 3.45 µM, the GI50 [41] was 1.05 µM and the TGI [41] was 2.31 µM. The GI50 [42] was 0.357 µM, the TGI [42] was 3.9 µM and the GI50 [43] was 0.134 µM. For the same molecule, the TGI [43] was 1.59 µM, the GI50 [44] was 0.406 µM and the TGI [44] was 1.98 µM. It also gave a GI50 [45] of 0.475 µM, a TGI [45] of 1.73 µM and a GI50 [46] of 0.478 µM. The TGI [46] was 2.09 µM, the GI50 [47] was 0.602 µM and the TGI [47] was 1.96 µM. The GI50 [48] was 0.477 µM, the TGI [48] was 1.86 µM and the GI50 [49] was 0.411 µM. The TGI [49] was 2.07 µM, the GI50 [50] was 0.437 µM and the TGI [50] was 2.54 µM. It also gave a GI50 [51] of 1.01 µM, a TGI [51] of 2.88 µM and a GI50 [52] of 0.0469 µM. It also gave a TGI [52] of 1.2 µM, a GI50 [53] of 0.422 µM and a TGI [53] of 2.47 µM. The GI50 [54] was 0.292 µM, the TGI [54] was 1.72 µM and the GI50 [55] was 0.452 µM. The TGI [55] was 1.77 µM, the GI50 [56] was 0.199 µM and the TGI [56] was 2.21 µM. It also gave a GI50 [57] of 0.501 µM, a TGI [57] of 1.94 µM and a GI50 [58] of 0.302 µM. For the same molecule, the TGI [58] was 1.57 µM, the GI50 [59] was 0.0832 µM and the TGI [59] was 1.57 µM.
